Results: patent US20220298213A1, “IN VIVO ENGINEERED CEREBLON PROTEIN” (Vividion Therapeutics, Inc., priority 2018, published 2022)
Like-named read-outs stand apart in the source and are kept apart here.

Legend:
Test in all cases: Probe labeling at native and denatured states after pretreatment (Table 2)
Type in all cases: binding
BTK_481 = biological target: T1, BTK_481 (Homo sapiens, UniProt Q06187); settings: screening concentration; for inhibition of probe labeling, BTK_481, Den.: denatured state; for inhibition of probe labeling, BTK_481, Nat.: native state
T1 construct: In each the cell lysate was pretreated with compound; endogenous in cells
T1 sequence (Q06187 whole entry): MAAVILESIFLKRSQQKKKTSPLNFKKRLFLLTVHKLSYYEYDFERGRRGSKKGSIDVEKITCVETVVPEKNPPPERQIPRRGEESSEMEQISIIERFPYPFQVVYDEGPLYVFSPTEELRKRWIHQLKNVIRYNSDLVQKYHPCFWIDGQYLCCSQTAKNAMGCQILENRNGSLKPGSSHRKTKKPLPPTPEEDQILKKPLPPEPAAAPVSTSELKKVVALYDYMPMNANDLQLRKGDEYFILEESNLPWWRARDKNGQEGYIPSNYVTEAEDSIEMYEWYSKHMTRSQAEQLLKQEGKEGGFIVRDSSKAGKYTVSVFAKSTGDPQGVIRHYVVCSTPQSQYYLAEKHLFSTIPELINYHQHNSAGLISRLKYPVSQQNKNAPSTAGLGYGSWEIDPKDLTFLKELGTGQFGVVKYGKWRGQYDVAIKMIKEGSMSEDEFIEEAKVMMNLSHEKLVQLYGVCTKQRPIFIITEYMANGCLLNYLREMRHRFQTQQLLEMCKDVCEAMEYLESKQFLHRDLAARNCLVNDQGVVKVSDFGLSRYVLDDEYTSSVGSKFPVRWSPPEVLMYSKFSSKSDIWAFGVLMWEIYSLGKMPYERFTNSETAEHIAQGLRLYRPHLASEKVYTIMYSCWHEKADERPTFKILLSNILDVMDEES

CRBN_188 = biological target: T2, CRBN_188 (Homo sapiens, UniProt Q96SW2)
T2 construct: endogenous in cells; host or cells: cell lysate
T2 sequence (Q96SW2 whole entry): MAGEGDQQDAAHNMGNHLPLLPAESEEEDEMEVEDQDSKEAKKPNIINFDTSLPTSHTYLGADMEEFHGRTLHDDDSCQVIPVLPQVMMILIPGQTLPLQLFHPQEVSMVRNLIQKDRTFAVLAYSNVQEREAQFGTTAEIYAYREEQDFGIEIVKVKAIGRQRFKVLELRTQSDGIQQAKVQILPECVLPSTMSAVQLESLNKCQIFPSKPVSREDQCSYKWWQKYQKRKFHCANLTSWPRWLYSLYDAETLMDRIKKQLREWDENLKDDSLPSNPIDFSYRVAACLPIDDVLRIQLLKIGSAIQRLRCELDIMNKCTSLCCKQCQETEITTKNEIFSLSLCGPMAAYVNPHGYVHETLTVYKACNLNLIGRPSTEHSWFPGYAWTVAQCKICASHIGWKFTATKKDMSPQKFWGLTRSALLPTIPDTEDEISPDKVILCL
Method: (§1) To determine whether the co-inhibition of C287 and C318 was due to a direct or indirect mechanism, CRBN was pretreated with various Michael acceptor compounds and then tested for probe labeling in its native and denatured states.
(§2) In each the cell lysate was pretreated with compound, for native state data the probe was immediately added and for denatured data the probe was added after an additional step of denaturation (schematic shown in FIG. 4).

CRBN_219 = biological target: T3, CRBN_219 (Homo sapiens, UniProt Q96SW2)
T3 construct: endogenous in cells; host or cells: cell lysate
T3 sequence (Q96SW2 whole entry): as above
Method: as §1, §2

CRBN_343 = biological target: T4, CRBN_343 (Homo sapiens, UniProt Q96SW2)
T4 construct: endogenous in cells; host or cells: cell lysate
T4 sequence (Q96SW2 whole entry): as above
Method: as §1, §2

CRBN_326 = biological target: T5, CRBN_326 (Homo sapiens, UniProt Q96SW2)
T5 construct: endogenous in cells; host or cells: cell lysate
T5 sequence (Q96SW2 whole entry): as above
Method: as §1, §2

CRBN_310 = biological target: T6, CRBN_310 (Homo sapiens, UniProt Q96SW2)
T6 construct: endogenous in cells; host or cells: cell lysate
T6 sequence (Q96SW2 whole entry): as above
Method: as §1, §2

CRBN_234 = biological target: T7, CRBN_234 (Homo sapiens, UniProt Q96SW2)
T7 construct: endogenous in cells; host or cells: cell lysate
T7 sequence (Q96SW2 whole entry): as above
Method: as §1, §2

CRBN_441 = biological target: T8, CRBN_441 (Homo sapiens, UniProt Q96SW2)
T8 construct: endogenous in cells; host or cells: cell lysate
T8 sequence (Q96SW2 whole entry): as above
Method: as §1, §2

CRBN_322 = biological target: T9, CRBN_322 (Homo sapiens, UniProt Q96SW2)
T9 construct: endogenous in cells; host or cells: cell lysate
T9 sequence (Q96SW2 whole entry): as above
Method: as §1, §2

CRBN_205 = biological target: T10, CRBN_205 (Homo sapiens, UniProt Q96SW2)
T10 construct: endogenous in cells; host or cells: cell lysate
T10 sequence (Q96SW2 whole entry): as above
Method: as §1, §2

CRBN-287 = CRBN-287 (Homo sapiens, UniProt Q96SW2); design: endogenous in cells; host or cells: cell lysate; settings: for inhibition of probe labeling, CRBN_287, Nat.: native state, cell lysate pretreated
Chain of CRBN-287 (Q96SW2 whole entry): as above
Method: as §1, §2

CRBN-318 = CRBN-318 (Homo sapiens, UniProt Q96SW2); design: endogenous in cells; host or cells: cell lysate; settings: for inhibition of probe labeling, CRBN_318, Nat.: native state, cell lysate pretreated
Chain of CRBN-318 (Q96SW2 whole entry): as above
Method: as §1, §2

TEC_449 = biological target: T11, TEC_449 (Homo sapiens, UniProt P42680); settings: screening concentration; for inhibition of probe labeling, TEC_449, Den.: denatured state; for inhibition of probe labeling, TEC_449, Nat.: native state
T11 construct: In each the cell lysate was pretreated with compound; endogenous in cells
T11 sequence (P42680 1-631): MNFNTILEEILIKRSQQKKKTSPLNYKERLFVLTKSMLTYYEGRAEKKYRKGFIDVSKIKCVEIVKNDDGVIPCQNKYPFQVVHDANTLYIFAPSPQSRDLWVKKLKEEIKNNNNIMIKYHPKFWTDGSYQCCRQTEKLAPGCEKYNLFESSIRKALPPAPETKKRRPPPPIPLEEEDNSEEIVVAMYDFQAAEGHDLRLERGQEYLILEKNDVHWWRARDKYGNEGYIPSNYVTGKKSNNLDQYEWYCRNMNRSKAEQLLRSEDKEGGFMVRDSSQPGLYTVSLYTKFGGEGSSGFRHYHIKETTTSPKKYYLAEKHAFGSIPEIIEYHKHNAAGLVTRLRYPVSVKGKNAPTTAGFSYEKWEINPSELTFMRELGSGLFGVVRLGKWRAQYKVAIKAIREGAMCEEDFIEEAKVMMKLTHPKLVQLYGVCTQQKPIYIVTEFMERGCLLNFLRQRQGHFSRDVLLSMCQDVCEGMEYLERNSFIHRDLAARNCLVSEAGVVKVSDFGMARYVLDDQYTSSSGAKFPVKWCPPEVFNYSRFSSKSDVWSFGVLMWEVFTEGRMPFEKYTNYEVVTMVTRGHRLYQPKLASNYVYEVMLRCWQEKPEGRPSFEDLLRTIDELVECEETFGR

[1] = denatured state, screening concentration
[2] = native state, screening concentration
[3] = denatured state, probe added after denaturation, screening concentration

SMILES: C=CC(=O)N1CCC(Oc2cc(C#N)cc(-c3ccccc3OC)c2)CC1 [drawing 205]
- inhibition of probe labeling, BTK_481, Den. (BTK_481): 21%
- inhibition of probe labeling, BTK_481, Nat. (BTK_481): 52%
- inhibition of probe labeling, CRBN_188, Den. (CRBN_188; [1]): −28%
- inhibition of probe labeling, CRBN_188, Nat. (CRBN_188; [2]): −18%
- inhibition of probe labeling, CRBN_219, Den. (CRBN_219; [1]): −2%
- inhibition of probe labeling, CRBN_219, Nat. (CRBN_219; [2]): −36%
- inhibition of probe labeling, CRBN_343, Den. (CRBN_343; [1]): −5%
- inhibition of probe labeling, CRBN_326, Den. (CRBN_326; [1]): −6%
- inhibition of probe labeling, CRBN_310, Den. (CRBN_310; [1]): 43%
- inhibition of probe labeling, CRBN_310, Nat. (CRBN_310; [2]): 54%
- inhibition of probe labeling, CRBN_234, Den. (CRBN_234; [1]): 26%
- inhibition of probe labeling, CRBN_234, Nat. (CRBN_234; [2]): 11%
- inhibition of probe labeling, CRBN_441, Den. (CRBN_441; [1]): −6%
- inhibition of probe labeling, CRBN_322, Den. (CRBN_322; [1]): 19%
- inhibition of probe labeling, CRBN_322, Nat. (CRBN_322; [2]): 25%
- inhibition of probe labeling, CRBN_205, Den. (CRBN_205; [1]): 4%
- inhibition of probe labeling, CRBN_205, Nat. (CRBN_205; [2]): −4%
- inhibition of probe labeling, CRBN_287, Den. (CRBN-287; [3]): 91%
- inhibition of probe labeling, CRBN_287, Nat. (CRBN-287; screening concentration): 98%
- inhibition of probe labeling, CRBN_318, Den. (CRBN-318; [3]): 38%
- inhibition of probe labeling, CRBN_318, Nat. (CRBN-318; screening concentration): 92%
- inhibition of probe labeling, TEC_449, Den. (TEC_449): 33%
- inhibition of probe labeling, TEC_449, Nat. (TEC_449): 28%

SMILES: C=CC(=O)N1CCC(Oc2cccc(-c3ccccc3OC)c2)CC1 [drawing 206]
- inhibition of probe labeling, BTK_481, Den. (BTK_481): −28%
- inhibition of probe labeling, BTK_481, Nat. (BTK_481): 2%
- inhibition of probe labeling, CRBN_188, Den. (CRBN_188; [1]): −44%
- inhibition of probe labeling, CRBN_188, Nat. (CRBN_188; [2]): −16%
- inhibition of probe labeling, CRBN_219, Den. (CRBN_219; [1]): 12%
- inhibition of probe labeling, CRBN_219, Nat. (CRBN_219; [2]): −25%
- inhibition of probe labeling, CRBN_343, Den. (CRBN_343; [1]): −12%
- inhibition of probe labeling, CRBN_326, Den. (CRBN_326; [1]): −15%
- inhibition of probe labeling, CRBN_310, Den. (CRBN_310; [1]): 35%
- inhibition of probe labeling, CRBN_310, Nat. (CRBN_310; [2]): 46%
- inhibition of probe labeling, CRBN_234, Den. (CRBN_234; [1]): 21%
- inhibition of probe labeling, CRBN_234, Nat. (CRBN_234; [2]): 27%
- inhibition of probe labeling, CRBN_441, Den. (CRBN_441; [1]): −22%
- inhibition of probe labeling, CRBN_322, Den. (CRBN_322; [1]): 27%
- inhibition of probe labeling, CRBN_322, Nat. (CRBN_322; [2]): 2%
- inhibition of probe labeling, CRBN_205, Den. (CRBN_205; [1]): 0%
- inhibition of probe labeling, CRBN_205, Nat. (CRBN_205; [2]): −20%
- inhibition of probe labeling, CRBN_287, Den. (CRBN-287; [3]): 76%
- inhibition of probe labeling, CRBN_287, Nat. (CRBN-287; screening concentration): 91%
- inhibition of probe labeling, CRBN_318, Den. (CRBN-318; [3]): 28%
- inhibition of probe labeling, CRBN_318, Nat. (CRBN-318; screening concentration): 82%
- inhibition of probe labeling, TEC_449, Den. (TEC_449): −4%
- inhibition of probe labeling, TEC_449, Nat. (TEC_449): 4%

SMILES: C=CC(=O)N(c1ccccc1)c1ccc(Br)cc1 [reference compound]
- inhibition of probe labeling, BTK_481, Den. (BTK_481): 98%
- inhibition of probe labeling, BTK_481, Nat. (BTK_481): 97%
- inhibition of probe labeling, CRBN_188, Den. (CRBN_188): −6%
- inhibition of probe labeling, CRBN_188, Nat. (CRBN_188): −36%
- inhibition of probe labeling, CRBN_219, Den. (CRBN_219): 57%
- inhibition of probe labeling, CRBN_219, Nat. (CRBN_219): 40%
- inhibition of probe labeling, CRBN_343, Den. (CRBN_343): −10%
- inhibition of probe labeling, CRBN_326, Den. (CRBN_326): −8%
- inhibition of probe labeling, CRBN_310, Den. (CRBN_310): 50%
- inhibition of probe labeling, CRBN_310, Nat. (CRBN_310): 2%
- inhibition of probe labeling, CRBN_234, Den. (CRBN_234): 45%
- inhibition of probe labeling, CRBN_234, Nat. (CRBN_234): −4%
- inhibition of probe labeling, CRBN_441, Den. (CRBN_441): −26%
- inhibition of probe labeling, CRBN_322, Den. (CRBN_322): 29%
- inhibition of probe labeling, CRBN_322, Nat. (CRBN_322): 29%
- inhibition of probe labeling, CRBN_205, Den. (CRBN_205): 13%
- inhibition of probe labeling, CRBN_205, Nat. (CRBN_205): −23%
- inhibition of probe labeling, CRBN_287, Den. (CRBN-287): 59%
- inhibition of probe labeling, CRBN_318, Den. (CRBN-318): 53%
- inhibition of probe labeling, TEC_449, Den. (TEC_449): 95%
- inhibition of probe labeling, TEC_449, Nat. (TEC_449): 96%
